# Data as given in PubChem BioAssay (NCI).
#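 Following 48 hours of exposure in 96-well plates, responses at five concentrations were used to interpolate endpoints linearly. TGI marks complete inhibition of growth.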
# Key:
# Test in all cases: NCI anticancer screen, dose series, 48 h
# OVCAR-4 ovarian = tested on: OVCAR-4 ovarian
# NCI-H226 lung = tested on: NCI-H226 lung
# A498 renal = tested on: A498 renal
# SF-295 CNS = tested on: SF-295 CNS
# SK-MEL-2 melanoma = tested on: SK-MEL-2 melanoma
# IGROV1 ovarian = tested on: IGROV1 ovarian
# SR leukemia = tested on: SR leukemia
# A549 NSCLC = tested on: A549 NSCLC
# KM12 colon = tested on: KM12 colon
# RPMI-8226 leukemia = tested on: RPMI-8226 leukemia
# M14 melanoma = tested on: M14 melanoma
# CAKI-1 renal = tested on: CAKI-1 renal
# HCT-116 colon = tested on: HCT-116 colon
# HCT-15 colon = tested on: HCT-15 colon
# ACHN renal = tested on: ACHN renal
# SK-MEL-28 melanoma = tested on: SK-MEL-28 melanoma
# MALME-3M melanoma = tested on: MALME-3M melanoma
# HL-60(TB) leukemia = tested on: HL-60(TB) leukemia
# OVCAR-8 ovarian = tested on: OVCAR-8 ovarian
# BT-549 breast = tested on: BT-549 breast
# SF-539 CNS = tested on: SF-539 CNS
# COLO 205 colon = tested on: COLO 205 colon
# 786-0 renal = tested on: 786-0 renal
# SNB-19 CNS = tested on: SNB-19 CNS
# MDA-N = tested on: MDA-N
# MOLT-4 leukemia = tested on: MOLT-4 leukemia
# HS 578T breast = tested on: HS 578T breast
# MDA-MB-435 = tested on: MDA-MB-435
# RXF 393 renal = tested on: RXF 393 renal
# SW-620 colon = tested on: SW-620 colon
# NCI-H522 lung = tested on: NCI-H522 lung
# MDA-MB-231 breast = tested on: MDA-MB-231 breast
# HT29 colon = tested on: HT29 colon
# K-562 leukemia = tested on: K-562 leukemia
# LOX IMVI melanoma = tested on: LOX IMVI melanoma
# OVCAR-5 ovarian = tested on: OVCAR-5 ovarian
# SN12C renal = tested on: SN12C renal
# HOP-92 NSCLC = tested on: HOP-92 NSCLC
# MCF7 breast = tested on: MCF7 breast
# NCI/ADR-RES ovarian = tested on: NCI/ADR-RES ovarian
# PC-3 prostate = tested on: PC-3 prostate
# HOP-62 NSCLC = tested on: HOP-62 NSCLC
# SNB-75 CNS = tested on: SNB-75 CNS
# EKVX NSCLC = tested on: EKVX NSCLC
# CCRF-CEM leukemia = tested on: CCRF-CEM leukemia
# OVCAR-3 ovarian = tested on: OVCAR-3 ovarian
# UACC-62 melanoma = tested on: UACC-62 melanoma
# SK-OV-3 ovarian = tested on: SK-OV-3 ovarian
# NCI-H23 lung = tested on: NCI-H23 lung
# SF-268 CNS = tested on: SF-268 CNS
# T-47D breast = tested on: T-47D breast
# DU-145 prostate = tested on: DU-145 prostate
# SK-MEL-5 melanoma = tested on: SK-MEL-5 melanoma
# UO-31 renal = tested on: UO-31 renal
# NCI-H460 lung = tested on: NCI-H460 lung
# TK-10 renal = tested on: TK-10 renal
# UACC-257 melanoma = tested on: UACC-257 melanoma
# HCC-2998 colon = tested on: HCC-2998 colon
# U251 CNS = tested on: U251 CNS
smiles,measurement,setting,value
COc1cc(S(=O)(=O)Nc2ccc(-c3csc(/N=C\c4ccccc4O)n3)cc2)ccc1Cl,TGI,OVCAR-4 ovarian,> 100 µM
same,TGI,NCI-H226 lung,> 100 µM
same,TGI,A498 renal,> 100 µM
same,TGI,SF-295 CNS,> 100 µM
same,TGI,SK-MEL-2 melanoma,78.5 µM
same,TGI,IGROV1 ovarian,> 100 µM
same,TGI,SR leukemia,95.2 µM
same,TGI,A549 NSCLC,> 100 µM
same,TGI,KM12 colon,> 100 µM
same,TGI,RPMI-8226 leukemia,> 100 µM
same,TGI,M14 melanoma,> 100 µM
same,TGI,CAKI-1 renal,> 100 µM
same,TGI,HCT-116 colon,> 100 µM
same,TGI,HCT-15 colon,> 100 µM
same,TGI,ACHN renal,> 100 µM
same,TGI,SK-MEL-28 melanoma,> 100 µM
same,TGI,MALME-3M melanoma,> 100 µM
same,TGI,HL-60(TB) leukemia,98.6 µM
same,TGI,OVCAR-8 ovarian,> 100 µM
same,TGI,BT-549 breast,> 100 µM
same,TGI,SF-539 CNS,> 100 µM
same,TGI,COLO 205 colon,> 100 µM
same,TGI,786-0 renal,> 100 µM
same,TGI,SNB-19 CNS,> 100 µM
same,TGI,MDA-N,> 100 µM
same,TGI,MOLT-4 leukemia,70.3 µM
same,TGI,HS 578T breast,> 100 µM
same,TGI,MDA-MB-435,> 100 µM
same,TGI,RXF 393 renal,> 100 µM
same,TGI,SW-620 colon,> 100 µM
same,TGI,NCI-H522 lung,> 100 µM
same,TGI,MDA-MB-231 breast,> 100 µM
same,TGI,HT29 colon,> 100 µM
same,TGI,K-562 leukemia,> 100 µM
same,TGI,LOX IMVI melanoma,> 100 µM
same,TGI,OVCAR-5 ovarian,> 100 µM
same,TGI,SN12C renal,> 100 µM
same,TGI,HOP-92 NSCLC,> 100 µM
same,TGI,MCF7 breast,59.7 µM
same,TGI,NCI/ADR-RES ovarian,> 100 µM
same,TGI,PC-3 prostate,> 100 µM
same,TGI,HOP-62 NSCLC,> 100 µM
same,TGI,SNB-75 CNS,> 100 µM
same,TGI,EKVX NSCLC,> 100 µM
same,TGI,CCRF-CEM leukemia,> 100 µM
same,TGI,OVCAR-3 ovarian,> 100 µM
same,TGI,UACC-62 melanoma,> 100 µM
same,TGI,SK-OV-3 ovarian,> 100 µM
same,TGI,NCI-H23 lung,> 100 µM
same,TGI,SF-268 CNS,> 100 µM
same,TGI,T-47D breast,61.2 µM
same,TGI,DU-145 prostate,> 100 µM
same,TGI,SK-MEL-5 melanoma,> 100 µM
same,TGI,UO-31 renal,> 100 µM
c1ccc(C2C3=C(c4ccccc4CC3)N3c4cc5nc6ccccc6nc5cc4NC34CCCCC24)cc1 (configuration not stated),TGI,NCI-H460 lung,> 10 µM
same,TGI,OVCAR-4 ovarian,> 10 µM
same,TGI,NCI-H226 lung,> 10 µM
same,TGI,A498 renal,> 10 µM
same,TGI,SF-295 CNS,> 10 µM
same,TGI,SK-MEL-2 melanoma,> 10 µM
same,TGI,IGROV1 ovarian,> 10 µM
same,TGI,TK-10 renal,> 10 µM
same,TGI,SR leukemia,2.05 µM
same,TGI,A549 NSCLC,> 10 µM
same,TGI,KM12 colon,> 10 µM
same,TGI,RPMI-8226 leukemia,> 9.17 µM
same,TGI,UACC-257 melanoma,> 10 µM
same,TGI,M14 melanoma,> 10 µM
same,TGI,CAKI-1 renal,> 10 µM
same,TGI,HCT-116 colon,> 10 µM
same,TGI,HCT-15 colon,> 10 µM
same,TGI,ACHN renal,> 10 µM
same,TGI,SK-MEL-28 melanoma,> 10 µM
same,TGI,MALME-3M melanoma,> 10 µM
same,TGI,HL-60(TB) leukemia,> 6.29 µM
same,TGI,OVCAR-8 ovarian,> 10 µM
same,TGI,BT-549 breast,> 10 µM
same,TGI,SF-539 CNS,> 10 µM
same,TGI,COLO 205 colon,> 10 µM
same,TGI,HCC-2998 colon,> 10 µM
same,TGI,786-0 renal,> 10 µM
same,TGI,SNB-19 CNS,> 10 µM
same,TGI,MDA-N,> 10 µM
same,TGI,MOLT-4 leukemia,> 8.19 µM
same,TGI,HS 578T breast,> 10 µM
same,TGI,MDA-MB-435,> 10 µM
same,TGI,RXF 393 renal,> 10 µM
same,TGI,SW-620 colon,> 10 µM
same,TGI,MDA-MB-231 breast,> 10 µM
same,TGI,HT29 colon,> 10 µM
same,TGI,K-562 leukemia,> 10 µM
same,TGI,LOX IMVI melanoma,> 10 µM
same,TGI,OVCAR-5 ovarian,> 10 µM
same,TGI,SN12C renal,> 10 µM
same,TGI,U251 CNS,> 10 µM
same,TGI,HOP-92 NSCLC,> 10 µM
same,TGI,MCF7 breast,> 10 µM
same,TGI,NCI/ADR-RES ovarian,> 10 µM
same,TGI,PC-3 prostate,> 10 µM
same,TGI,HOP-62 NSCLC,> 10 µM
same,TGI,SNB-75 CNS,> 10 µM
same,TGI,EKVX NSCLC,> 10 µM
same,TGI,CCRF-CEM leukemia,5.9 µM
same,TGI,OVCAR-3 ovarian,> 10 µM
same,TGI,UACC-62 melanoma,> 10 µM
same,TGI,SK-OV-3 ovarian,> 10 µM
same,TGI,NCI-H23 lung,> 10 µM
same,TGI,SF-268 CNS,> 10 µM
same,TGI,T-47D breast,> 10 µM
same,TGI,DU-145 prostate,> 10 µM
same,TGI,SK-MEL-5 melanoma,> 10 µM
same,TGI,UO-31 renal,> 10 µM
